Experimental data reported in ChEMBL document CHEMBL4742388, “Inhibitors of cyclin-dependent kinase 7 (cdk7)” (2019).

test system: A673; test: Inhibition of cell proliferation of human A673 cells incubated for 72 hrs by CyQUANT assay; format: functional, cell-based; conditions: A673, 72 h

Compound	IC50
C[C@H]1CCNC[C@@H]1Nc1ncc(Cl)c(-c2c[nH]c3ccccc23)n1	200 nM
FC(F)(F)c1cnc(N[C@H]2CCCNC2)nc1-c1c[nH]c2c(Cl)cccc12	< 20 nM
Fc1cccc2c(-c3nc(N[C@H]4CCCNC4)ncc3C(F)(F)F)n[nH]c12	< 20 nM
CCc1cnc(N[C@H]2CCCNC2)nc1-c1c[nH]c2ccccc12	20 nM
OC1CCC(c2cccc3c(-c4nc(N[C@H]5CCCNC5)ncc4C(F)(F)F)c[nH]c23)CC1 (some centres undefined)	< 20 nM
Brc1cnc(N[C@@H]2CCCNC2)nc1-c1c[nH]c2ccccc12	< 20 nM
Clc1cnc(N[C@H]2CCCNC2)nc1-c1c[nH]c2ccccc12	≤ 20 nM
FC(F)(F)c1cnc(N[C@H]2CCCNC2)nc1-c1c[nH]c2cnc(Cl)cc12	20 nM
CCOP(=O)(OCC)c1ccc2[nH]cc(-c3nc(N[C@H]4CCCNC4)ncc3C(F)(F)F)c2c1	200 nM
CC1(Nc2ncc(Cl)c(-c3c[nH]c4ccccc34)n2)CCCNC1 (centres undefined)	200 nM
CNC(=O)c1cccc2c(-c3nc(N[C@H]4CCCNC4)ncc3C(F)(F)F)c[nH]c12	20 nM
C[C@@H]1CNC[C@@H](Nc2ncc(Cl)c(-c3c[nH]c4ccccc34)n2)C1	20 nM
N#Cc1ccc2[nH]cc(-c3nc(N[C@H]4CCCNC4)ncc3C(F)(F)F)c2c1	200 nM
FC(F)(F)c1cnc(N[C@H]2CCCNC2)nc1-c1c[nH]c2ccc(-c3cn[nH]c3)cc12	200 nM
CS(=O)(=O)c1cccc2c(-c3nc(N[C@H]4CCCNC4)ncc3C(F)(F)F)c[nH]c12	< 20 nM
Fc1cc2[nH]nc(-c3nc(N[C@H]4CCCNC4)ncc3C(F)(F)F)c2cc1F	< 20 nM
CC1(C)CCNC[C@H]1Nc1ncc(C(F)(F)F)c(-c2c[nH]c3ccccc23)n1	200 nM
CCc1cnc(N[C@H]2CCCNC2)nc1-c1c[nH]c2c(C)cccc12	20 nM
Cn1cc(-c2ccc3c(-c4nc(N[C@H]5CCCNC5)ncc4C(F)(F)F)c[nH]c3c2)cn1	< 20 nM
COCCn1cc(-c2nc(N[C@H]3CCCNC3)ncc2Cl)c2ccccc21	200 nM
Clc1cnc(NC2CNCCC2c2ccccc2)nc1-c1c[nH]c2ccccc12 (centres undefined)	200 nM
Cc1cnc(N[C@H]2CCCNC2)nc1-c1c[nH]c2ccccc12	20 nM
Cn1cc(-c2ccc3[nH]cc(-c4nc(N[C@H]5CCCNC5)ncc4C(F)(F)F)c3c2)cn1	200 nM
FC(F)(F)c1cnc(N[C@H]2CCCNC2)nc1-c1c[nH]c2cc(-c3cn[nH]c3)ccc12	20 nM
FC(F)(F)c1cnc(N[C@H]2CCCNC2)nc1-c1n[nH]c2ccccc12	20 nM
Cc1cccc2c(-c3nc(N[C@H]4CCCNC4)ncc3F)c[nH]c12	200 nM

Compound	IC50
CC1(O)CCN(C(=O)c2ccc3c(-c4nc(N[C@H]5CCCNC5)ncc4C(F)(F)F)c[nH]c3c2)C1 (single isomer, unassigned)	200 nM
FC(F)(F)Cc1cnc(N[C@H]2CCCNC2)nc1-c1n[nH]c2ccccc12	20 nM
Cc1[nH]c2ccccc2c1-c1nc(N[C@H]2CCCNC2)ncc1Cl	20 nM
CC1(C)CCNC[C@@H]1Nc1ncc(C(F)(F)F)c(-c2c[nH]c3ccccc23)n1 (single isomer, unassigned)	20 nM
FC(F)(F)c1cnc(N[C@H]2CNC[C@@H](c3nnc4ccccn34)C2)nc1-c1c[nH]c2ccccc12	200 nM
Clc1cnc(N[C@@H]2CCCNC2)nc1-c1c[nH]c2ccccc12	20 nM
Clc1cnc(N[C@H]2CCCNC2)nc1-c1c[nH]c2c(N3CCOCC3)cccc12	20 nM
CC(=O)c1cccc2c(-c3nc(N[C@H]4CCCNC4)ncc3Cl)c[nH]c12	< 20 nM
CNC(=O)[C@@H]1CNC[C@@H](Nc2ncc(C(F)(F)F)c(-c3c[nH]c4ccccc34)n2)C1	200 nM
COCCn1cc(-c2nc(N[C@H]3CCCNC3)ncc2C(F)(F)F)c2ccccc21	200 nM
Clc1cnc(N[C@H]2CCCNC2)nc1-c1c[nH]c2ncccc12	20 nM
N#Cc1cccc2c(-c3nc(N[C@H]4CCCNC4)ncc3C(F)(F)F)c[nH]c12	< 20 nM
CC(C)n1cc(-c2nc(N[C@H]3CCCNC3)ncc2Cl)c2ccccc21	200 nM
N#Cc1ccc2c(-c3nc(N[C@@H]4CCCNC4)ncc3C(F)(F)F)c[nH]c2c1-c1ccnnc1	< 20 nM
CC(C)c1cnc(N[C@H]2CCCNC2)nc1-c1c[nH]c2ccccc12	200 nM
CCc1cnc(N[C@H]2CCCNC2)nc1-c1c[nH]c2ncc(F)cc12	200 nM
CC1CCC(Nc2ncc(Cl)c(-c3c[nH]c4ccccc34)n2)CN1 (centres undefined)	20 nM
Cc1cccc2c(-c3nc(N[C@H]4CCCNC4)ncc3Cl)c[nH]c12	< 20 nM
CCc1cnc(N[C@@H]2CCCNC2)nc1-c1n[nH]c2ncccc12	20 nM
CCc1cnc(N[C@H]2CCCNC2)nc1-c1n[nH]c2ccccc12	20 nM
Fc1cccc2c(-c3nc(N[C@H]4CCCNC4)ncc3Cl)n[nH]c12	< 20 nM
N#Cc1ccc2c(-c3nc(N[C@H]4CCCNC4)ncc3Cl)c[nH]c2c1	< 20 nM
C[C@H](O)c1cnc(N[C@H]2CCCNC2)nc1-c1c[nH]c2ccccc12	200 nM
C[C@@H](O)c1cnc(N[C@H]2CCCNC2)nc1-c1c[nH]c2ccccc12	200 nM
Cc1cccc2c(-c3nc(N[C@H]4CCCNC4)ncc3C(F)(F)F)c[nH]c12	< 20 nM
Cc1cccc2c(-c3nc(N[C@H]4CCCNC4)ncc3CC(C)C)c[nH]c12	200 nM

Compound	IC50
Cc1ccc2[nH]cc(-c3nc(N[C@H]4CCCNC4)ncc3Cl)c2c1	200 nM
F[C@@H]1CCNC[C@H]1Nc1ncc(Cl)c(-c2c[nH]c3ccccc23)n1	20 nM
CNC(=O)[C@@H]1CNC[C@H](Nc2ncc(C(F)(F)F)c(-c3c[nH]c4ccccc34)n2)C1	20 nM
CNC(=O)[C@H]1CNC[C@H](Nc2ncc(C(F)(F)F)c(-c3c[nH]c4ccccc34)n2)C1	20 nM
Clc1cnc(NC2(c3ccccc3)CCCNC2)nc1-c1c[nH]c2ccccc12 (centres undefined)	200 nM
Clc1cnc(N[C@H]2CCCNC2)nc1-c1c[nH]c2ccncc12	20 nM
O=C(O)c1cccc2c(-c3nc(N[C@H]4CCCNC4)ncc3Cl)c[nH]c12	200 nM
Fc1cccc2c(-c3nc(N[C@H]4CCCNC4)ncc3Cl)c[nH]c12	< 20 nM
Clc1cnc(N[C@H]2CCCNC2)nc1-c1cnn2ccccc12	20 nM
Clc1cnc(N[C@H]2CCCNC2)nc1-c1c[nH]c2cccnc12	20 nM
FC(F)(F)c1cnc(N[C@H]2CCCNC2)nc1-c1c[nH]c2ccc(Cl)cc12	< 20 nM
Cc1[nH]ncc1-c1cccc2c(-c3nc(N[C@@H]4CCCNC4)ncc3C(F)(F)F)c[nH]c12	< 20 nM
O[C@H]1CC[C@@H](c2cccc3c(-c4nc(N[C@H]5CCCNC5)ncc4C(F)(F)F)c[nH]c32)CC1	200 nM
CNC(=O)[C@H]1CNC[C@@H](Nc2ncc(C(F)(F)F)c(-c3c[nH]c4ccccc34)n2)C1	200 nM
N#C[C@@H]1CCN(C(=O)c2ccc3c(-c4nc(N[C@H]5CCCNC5)ncc4C(F)(F)F)c[nH]c3c2)C1	20 nM
Clc1cnc(N[C@H]2CCCNC2)nc1-c1c[nH]c2ccc(N3CCOCC3)cc12	20 nM
CC1NCCCC1Nc1ncc(Cl)c(-c2c[nH]c3ccccc23)n1 (centres undefined)	20 nM
FC(F)(F)c1cnc(N[C@@H]2CNC[C@H](c3nnc4ccccn34)C2)nc1-c1c[nH]c2ccccc12	≤ 20 nM
Clc1cnc(N[C@H]2CCCNC2)nc1-c1cn(-c2ccccc2)c2ccccc12	200 nM
CCOP(=O)(OCC)c1ccc2c(-c3nc(N[C@H]4CCCNC4)ncc3C(F)(F)F)c[nH]c2c1	20 nM
O[C@@H]1CCNC[C@H]1Nc1ncc(Cl)c(-c2c[nH]c3ccccc23)n1	200 nM
CNC(=O)c1ccc2c(-c3nc(N[C@H]4CCCNC4)ncc3C(F)(F)F)c[nH]c2c1	20 nM
Fc1cnc2[nH]cc(-c3nc(N[C@H]4CCCNC4)ncc3C(F)(F)F)c2c1	< 20 nM
Fc1ccc2[nH]cc(-c3nc(N[C@H]4CCCNC4)ncc3Cl)c2c1	20 nM

test system: HCC70; test: Inhibition of cell proliferation of human HCC70 cells incubated for 72 hrs by CyQUANT assay; format: functional, cell-based; conditions: HCC70, 72 h

Compound	IC50
N#Cc1ccc2c(-c3nc(N[C@H]4CCC5(CCC5)NC4)ncc3C(F)(F)F)c[nH]c2c1 (single isomer, unassigned)	1000 nM
O=C(c1ccc2c(-c3nc(N[C@H]4CCCNC4)ncc3C(F)(F)F)c[nH]c2c1)N1CC[C@@](O)(C(F)(F)F)C1 (single isomer, unassigned)	100 nM
FC(F)(F)c1cnc(N[C@H]2CCCNC2)nc1-c1c[nH]c2cnc(Cl)cc12	100 nM
CNC(=O)c1cccc2c(-c3nc(N[C@H]4CCCNC4)ncc3C(F)(F)F)c[nH]c12	100 nM
CS(=O)(=O)c1cccc2c(-c3nc(N[C@H]4CCCNC4)ncc3C(F)(F)F)c[nH]c12	< 100 nM
COC1CCN(C(=O)c2ccc3c(-c4nc(N[C@H]5CCCNC5)ncc4C(F)(F)F)c[nH]c3c2)C1 (single isomer, unassigned)	100 nM
CN1CCC[C@H](Nc2ncc(C(F)(F)F)c(-c3c[nH]c4cc(S(=O)(=O)N5CCC(C)(O)C5)ccc34)n2)C1 (some centres undefined)	1000 nM
CC1CCNCC1Nc1ncc(C(F)(F)F)c(-c2c[nH]c3ccccc23)n1 (single isomer, unassigned)	100 nM
CC1(O)CCN(C(=O)c2ccc3c(-c4nc(N[C@H]5CCCNC5)ncc4C(F)(F)F)c[nH]c3c2)C1 (single isomer, unassigned)	100 nM
FC(F)(F)c1cnc(N[C@H]2CCCNC2)nc1-c1c[nH]c2cc(-c3cccc(Oc4ccccc4)c3)ccc12	1000 nM
Clc1cnc(N[C@H]2CCCNC2)nc1-c1c[nH]c2ncccc12	< 100 nM
N#Cc1ccc2c(-c3nc(N[C@@H]4CCC5(CCC5)NC4)ncc3C(F)(F)F)c[nH]c2c1 (single isomer, unassigned)	100 nM
N#Cc1ccc2c(-c3nc(N[C@@H]4CCCNC4)ncc3C(F)(F)F)c[nH]c2c1-c1ccnnc1	< 100 nM
CC(C)c1cnc(N[C@H]2CCCNC2)nc1-c1c[nH]c2ccccc12	1000 nM
Cc1cccc2c(-c3nc(N[C@H]4CCCNC4)ncc3Cl)c[nH]c12	< 100 nM
N#Cc1ccc2c(-c3nc(N[C@H]4CCCNC4)ncc3Cl)c[nH]c2c1	< 100 nM
Fc1cccc2c(-c3nc(N[C@H]4CCCNC4)ncc3Cl)c[nH]c12	100 nM
Clc1cnc(N[C@H]2CCCNC2)nc1-c1cnn2ccccc12	100 nM
Cc1[nH]ncc1-c1cccc2c(-c3nc(N[C@@H]4CCCNC4)ncc3C(F)(F)F)c[nH]c12	1000 nM
CNC(=O)c1cccc2c(-c3nc(N[C@H]4CCCNC4)ncc3C(F)(F)F)cn(C)c12	1000 nM
CC[C@@]1(O)CCN(C(=O)c2ccc3c(-c4nc(N[C@H]5CCCNC5)ncc4C(F)(F)F)c[nH]c3c2)C1 (single isomer, unassigned)	1000 nM
N#C[C@@H]1CCN(C(=O)c2ccc3c(-c4nc(N[C@H]5CCCNC5)ncc4C(F)(F)F)c[nH]c3c2)C1	100 nM
Fc1cncc(-c2ccc3c(-c4nc(N[C@H]5CCCNC5)ncc4C(F)(F)F)c[nH]c3c2)c1	100 nM
CC[C@]1(O)CCN(C(=O)c2ccc3c(-c4nc(N[C@H]5CCCNC5)ncc4C(F)(F)F)c[nH]c3c2)C1 (single isomer, unassigned)	100 nM
C[C@H]1CCNC[C@@H]1Nc1ncc(C(F)(F)F)c(-c2c[nH]c3ccccc23)n1	1000 nM
O=C(c1ccc2c(-c3nc(N[C@H]4CCCNC4)ncc3C(F)(F)F)c[nH]c2c1)N1CC[C@](O)(C(F)(F)F)C1 (single isomer, unassigned)	1000 nM
Fc1cnc2[nH]cc(-c3nc(N[C@H]4CCCNC4)ncc3C(F)(F)F)c2c1	< 100 nM
Fc1ccc2[nH]cc(-c3nc(N[C@H]4CCCNC4)ncc3Cl)c2c1	100 nM
